Columns and labels:
[1] = test system: ABUTIL; test: Pre-emergence herbicidal action; type: in vivo, Abutilon; parameters: key: 1=total damage; 9=no action; conditions: 250 g of active ingredient per ha, sprayed immediately after sowing, evaluated after 3 weeks; scale of nine ratings, 1 to 4 good to very good action
Procedure: (§1) Monocotyledonous and dicotyledonous test plants are sown in standard soil in plastic pots. Immediately after sowing, the test compounds, in the form of an aqueous suspension (prepared from a 25% wettable powder (Example F3, b) according to WO 97/34485) or in the form of an emulsion (prepared from a 25% emulsifiable concentrate (Example F1, c)), are applied by spraying, in an amount corresponding to 250 g of active ingredient per ha (500 litres of water per ha). The test plants are then grown in a greenhouse under optimum conditions. After a test duration of 3 weeks, the test is evaluated in accordance with a scale of nine ratings (1=total damage, 9=no action). Ratings of from 1 to 4 (especially from 1 to 3) indicate good to very good herbicidal action.

[2] = test system: AMARAN; test: Pre-emergence herbicidal action; type: in vivo, Amaranthus; parameters: key: 1=total damage; 9=no action; conditions: 250 g of active ingredient per ha, sprayed immediately after sowing, evaluated after 3 weeks; scale of nine ratings, 1 to 4 good to very good action
Procedure: as §1

[3] = test system: DIGITA; test: Pre-emergence herbicidal action; type: in vivo, Digitaria; parameters: key: 1=total damage; 9=no action; conditions: 250 g of active ingredient per ha, sprayed immediately after sowing, evaluated after 3 weeks; scale of nine ratings, 1 to 4 good to very good action
Procedure: as §1

[4] = test system: PANICU; test: Pre-emergence herbicidal action; type: in vivo; parameters: key: 1=total damage; 9=no action; conditions: 250 g of active ingredient per ha, sprayed immediately after sowing, evaluated after 3 weeks; scale of nine ratings, 1 to 4 good to very good action
Procedure: as §1

[5] = test system: CHENOP; test: Pre-emergence herbicidal action; type: in vivo, Chenopodium; parameters: key: 1=total damage; 9=no action; conditions: 250 g of active ingredient per ha, sprayed immediately after sowing, evaluated after 3 weeks; scale of nine ratings, 1 to 4 good to very good action
Procedure: as §1

[6] = test system: ECHINO; test: Pre-emergence herbicidal action; type: in vivo, Echinochloa; parameters: key: 1=total damage; 9=no action; conditions: 250 g of active ingredient per ha, sprayed immediately after sowing, evaluated after 3 weeks; scale of nine ratings, 1 to 4 good to very good action
Procedure: as §1

[7] = test system: SETARI; test: Pre-emergence herbicidal action; type: in vivo, Setaria; parameters: key: 1=total damage; 9=no action; conditions: 250 g of active ingredient per ha, sprayed immediately after sowing, evaluated after 3 weeks; scale of nine ratings, 1 to 4 good to very good action
Procedure: as §1

[8] = test system: STELLA; test: Pre-emergence herbicidal action; type: in vivo, Stellaria; parameters: key: 1=total damage; 9=no action; conditions: 250 g of active ingredient per ha, sprayed immediately after sowing, evaluated after 3 weeks; scale of nine ratings, 1 to 4 good to very good action
Procedure: as §1

[9] = test system: SETARI; test: Post-emergence herbicidal action; type: in vivo, Setaria; conditions: 250 g of active ingredient per ha, sprayed at 4- to 6-leaf stage, evaluated after about 18 days; scale of nine ratings, 1 to 4 good to very good action
Procedure: (§2) Monocotyledonous and dicotyledonous test plants are grown in standard soil in plastic pots in a greenhouse and, at the 4- to 6-leaf stage, are sprayed with an aqueous suspension of the test compounds of formula I, prepared from a 25% wettable powder (Example F3, b) according to WO 97/34485 or with an emulsion of the test compounds of formula I, prepared from a 25% emulsifiable concentrate (Example F1, c) according to WO 97/34485, in an amount corresponding to 250 g of active ingredient per ha (500 litres of water per ha). The test plants are then grown on in the greenhouse under optimum conditions. After a test duration of about 18 days, the test is evaluated in accordance with a scale of nine ratings (1=total damage, 9=no action). Ratings of from 1 to 4 (especially from 1 to 3) indicate good to very good herbicidal action.

[10] = test system: AMARAN; test: Post-emergence herbicidal action; type: in vivo, Amaranthus; conditions: 250 g of active ingredient per ha, sprayed at 4- to 6-leaf stage, evaluated after about 18 days; scale of nine ratings, 1 to 4 good to very good action
Procedure: as §2

[11] = test system: DIGITA; test: Post-emergence herbicidal action; type: in vivo, Digitaria; parameters: key: 1=total damage; 9=no action; conditions: 250 g of active ingredient per ha, sprayed at 4- to 6-leaf stage, evaluated after about 18 days; scale of nine ratings, 1 to 4 good to very good action
Procedure: as §2

[12] = test system: EUPHOR; test: Post-emergence herbicidal action; type: in vivo; conditions: 250 g of active ingredient per ha, sprayed at 4- to 6-leaf stage, evaluated after about 18 days; scale of nine ratings, 1 to 4 good to very good action
Procedure: as §2

[13] = test system: PANICU; test: Post-emergence herbicidal action; type: in vivo; parameters: key: 1=total damage; 9=no action; conditions: 250 g of active ingredient per ha, sprayed at 4- to 6-leaf stage, evaluated after about 18 days; scale of nine ratings, 1 to 4 good to very good action
Procedure: as §2

[14] = test system: ECHINO; test: Post-emergence herbicidal action; type: in vivo, Echinochloa; conditions: 250 g of active ingredient per ha, sprayed at 4- to 6-leaf stage, evaluated after about 18 days; scale of nine ratings, 1 to 4 good to very good action
Procedure: as §2

[15] = test system: ABUTIL; test: Post-emergence herbicidal action; type: in vivo, Abutilon; parameters: key: 1=total damage; 9=no action; conditions: 250 g of active ingredient per ha, sprayed at 4- to 6-leaf stage, evaluated after about 18 days; scale of nine ratings, 1 to 4 good to very good action
Procedure: as §2

[16] = test system: CHENOP; test: Post-emergence herbicidal action; type: in vivo, Chenopodium; parameters: key: 1=total damage; 9=no action; conditions: 250 g of active ingredient per ha, sprayed at 4- to 6-leaf stage, evaluated after about 18 days; scale of nine ratings, 1 to 4 good to very good action
Procedure: as §2

| SMILES | Pre-emergence action ABUTIL, rating [1] | Pre-emergence action AMARAN, rating [2] | Pre-emergence action DIGITA, rating [3] | Pre-emergence action PANICU, rating [4] | Pre-emergence action CHENOP, rating [5] | Pre-emergence action ECHINO, rating [6] | Pre-emergence action SETARI, rating [7] | Pre-emergence action STELLA, rating [8] | Post-emergence action SETARI, rating [9] | Post-emergence action AMARAN, rating [10] | Post-emergence action DIGITA, rating [11] | Post-emergence action EUPHOR, rating [12] | Post-emergence action PANICU, rating [13] | Post-emergence action ECHINO, rating [14] | Post-emergence action ABUTIL, rating [15] | Post-emergence action CHENOP, rating [16] |
| --- | --- | --- | --- | --- | --- | --- | --- | --- | --- | --- | --- | --- | --- | --- | --- | --- |
| Cc1nc(C(F)(F)F)ccc1C(=O)C1=C(N(Cc2ccccc2)S(=O)(=O)c2ccccc2)C2CCC(C2)C1=O (centres unmarked) [Example 1.079] | 4 | 3 | 3 | 1 | 2 | 2 | 6 | 2 |  |  |  |  |  |  |  |  |
| Cc1nc(C(F)(F)F)ccc1C(=O)C1=C(N(Cc2ccccc2)S(=O)(=O)C(C)C)C2CCC(C2)C1=O (centres unmarked) [Example 1.067] | 2 | 2 | 1 | 1 | 1 | 2 | 1 | 1 |  |  |  |  |  |  |  |  |
| CCS(=O)(=O)N(CCOC)C1=C(C(=O)c2ccc(C(F)(F)F)nc2C)C(=O)C(C)(C)C(=O)C1(C)C [Example 1.007] | 1 | 1 | 1 | 1 | 1 | 1 | 1 | 1 | 2 | 2 | 1 | 2 | 1 | 2 | 1 | 1 |
| COCCN(C1=C(C(=O)c2ccc(C(F)(F)F)nc2C)C(=O)C2CCC1C2)S(C)(=O)=O (centres unmarked) [Example 1.012] | 1 | 1 | 1 | 1 |  | 1 | 1 | 4 | 2 | 2 | 2 | 2 | 2 | 2 | 2 | 1 |
